Test results reported in patent publication US20240182407A1, “QUINOLINE COMPOUND SALT OR CRYSTAL FORM, PREPARATION METHOD THEREFOR, AND APPLICATION THEREOF” (Nanjing Zenshine Pharmaceuticals Co., Ltd., priority 2021, published 2024).
pIC50: −log10 of the molar value. Values joined by “and” are separate entries in the source; they are usually repeats but may differ in a detail not shown here. Equal values may be shown once. Read-outs that look alike come from different tables or passages of the source.

Columns and labels:
[1] = Solid stability, 40° C./75% RH and 60° C., one week (HPLC purity, XRPD); format: physicochemical
Method: Appropriate amounts of Compound A and p-toluenesulfonate of Compound A (Sample 5, crystal form I) were respectively placed in 40° C./75% RH and 60° C. environments for one week to determine solid stability. At days 0 and 7, HPLC purity analysis and solid XRPD determination were carried out, and some of the results were as shown in Table 7.

[2] = Solubility in organic solvents; format: physicochemical; details: organic solvent or mixture
Description: Therefore, these two solvents were taken, for example, as good solvents and subjected to anti-solvent precipitation experiments.

PI3Kβ (p110β) = PI3Kβ (p110β) (Homo sapiens, UniProt P42338); assay: ADP-Glo kinase inhibition, PI3Kβ; details: read-out: IC50 PI3Kβ Biochemical
Method: In Example 7, the inhibitory effects of Sample 6 prepared in Example 6 above on kinases PI3Kα, PI3Kβ, PI3Kγ and PI3Kδ were tested.
The kinases used in the experiment were respectively purchased from: • PI3Kα (p110α/p85α), purchased from Invitrogen, under Cat. No. PV4788; • PI3Kβ (p110β), purchased from eurofins, under Cat. No. 14-603M; • PI3Kδ (p110δ/p85a), purchased from Invitrogen, under Cat. No. PV6452; and • PI3Kγ (p110γ), purchased from Invitrogen, under Cat. No. PR8641C. • Firstly, a 1× kinase buffer solution was prepared, which comprised: • 50 mM HEPES, pH 7.5 • 3 mM MgCl2 • 1 mM EGTA • 100 mM NaCl • 0.03% CHAPS • 2 mM DTT
On kinases PI3Kα, PI3Kβ and PI3Kγ, the final detection concentration of the compound was 10 μM. 100× concentration was prepared, i.e., 1000 μM. 90 μL of 100% DMSO was added to the second well in row A on a 96-well plate, 10 μL of a 10 mM compound solution was then added, and 3-fold serial dilution was made to obtain a total of 10 concentrations.
50 μL of 100% DMSO was transferred to two empty wells as Max well and Min well, respectively.
50 nL of the compound was transferred into a 384-well plate using ECHO550.
Preparation of 2× kinase solution: the kinase was added to a 1× kinase buffer to prepare a 2× enzyme solution. […]
Finally, the chemiluminescence values were read from Envision 2104 Multi-label Reader and subjected to curve fitting, and IC50 was calculated.

PI3Kδ = molecular target: T1, PI3Kδ (Homo sapiens, UniProt O00329); assay: Akt phosphorylation in Raji cells stimulated by IgM (AlphaLISA); details: phosphorylation of Akt, read-out: IC50 PI3Kδ Cell-based
T1 construct: host or cells: Raji cells
Method: (§1) In addition, taking Sample 6 as an example, the inhibitory effects thereof on PI3Kα, PI3Kβ, PI3Kγ and PI3Kδ in corresponding cells were determined. The activity of PI3Kα was detected by the phosphorylation level of Akt in C2Cl2 cells stimulated by IGF-1, the activity of PI3Kβ was detected by the phosphorylation level of Akt in PC-3 cells stimulated by LPA, the activity of PI3Kγ was detected by the phosphorylation level of Akt in Raw264.7 cells stimulated by c5α, and the activity of PI3Kδ was detected by the phosphorylation level of Akt in Raji cells stimulated by IgM. The phosphorylation level of Akt in cells was determined by means of AlphaLISA technique from PerkinElemer.
(§2) The C2C12 cells, PC-3 cells, Raw264.7 cells and Raji cells were all purchased from ATCC.

PI3Kβ = molecular target: T2, PI3Kβ (Homo sapiens, UniProt P42338); assay: Akt phosphorylation in PC-3 cells stimulated by LPA (AlphaLISA); details: phosphorylation of Akt, read-out: IC50 PI3Kβ Cell-based
T2 construct: host or cells: PC-3 cells
Method: as §1, §2

DoHH-2 = assay: Proliferation of lymphoma cell line in vitro, DoHH-2; format: cell-based; details: Homo sapiens, read-out: absolute IC50 (AbsIC50), proliferation
WSU-DLCL-2 = assay: Proliferation of lymphoma cell line in vitro, WSU-DLCL-2; format: cell-based; details: Homo sapiens, WSUDLCL2, read-out: absolute IC50 (AbsIC50), proliferation
[3] = system: mouse colorectal cancer CT26. WT cell; assay: Mouse colorectal cancer CT26. WT cell subcutaneous transplantation tumor model; format: in vivo
Description: WT cell subcutaneous transplantation tumor model.

T1 sequence (O00329 whole entry): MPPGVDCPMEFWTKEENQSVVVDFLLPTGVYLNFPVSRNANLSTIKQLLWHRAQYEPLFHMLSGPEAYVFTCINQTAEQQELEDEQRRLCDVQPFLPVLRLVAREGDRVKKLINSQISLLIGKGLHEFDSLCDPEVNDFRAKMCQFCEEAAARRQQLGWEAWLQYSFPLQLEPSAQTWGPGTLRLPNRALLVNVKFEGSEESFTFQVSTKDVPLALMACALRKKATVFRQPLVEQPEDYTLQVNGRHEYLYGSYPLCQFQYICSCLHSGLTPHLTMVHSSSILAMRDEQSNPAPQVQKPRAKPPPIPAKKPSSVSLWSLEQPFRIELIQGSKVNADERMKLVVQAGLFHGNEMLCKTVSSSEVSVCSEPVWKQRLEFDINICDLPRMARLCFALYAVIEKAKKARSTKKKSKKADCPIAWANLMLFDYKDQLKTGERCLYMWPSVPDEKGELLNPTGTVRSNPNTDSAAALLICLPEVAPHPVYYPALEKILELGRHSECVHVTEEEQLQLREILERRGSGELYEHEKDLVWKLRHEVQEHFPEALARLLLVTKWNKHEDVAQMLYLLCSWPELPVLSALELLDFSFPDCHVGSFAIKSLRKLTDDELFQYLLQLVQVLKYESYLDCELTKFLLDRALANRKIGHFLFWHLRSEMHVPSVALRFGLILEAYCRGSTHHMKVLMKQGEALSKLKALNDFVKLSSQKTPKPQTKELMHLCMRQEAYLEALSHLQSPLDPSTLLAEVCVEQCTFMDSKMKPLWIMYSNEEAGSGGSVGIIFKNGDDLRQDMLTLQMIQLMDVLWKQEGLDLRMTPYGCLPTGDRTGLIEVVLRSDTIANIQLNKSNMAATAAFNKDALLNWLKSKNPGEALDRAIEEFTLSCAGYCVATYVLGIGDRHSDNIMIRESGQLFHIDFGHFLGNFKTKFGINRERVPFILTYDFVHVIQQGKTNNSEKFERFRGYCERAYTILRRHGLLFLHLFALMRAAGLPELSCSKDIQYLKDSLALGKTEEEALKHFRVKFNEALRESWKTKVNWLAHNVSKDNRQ
T1 sequence (P27986 whole entry partner): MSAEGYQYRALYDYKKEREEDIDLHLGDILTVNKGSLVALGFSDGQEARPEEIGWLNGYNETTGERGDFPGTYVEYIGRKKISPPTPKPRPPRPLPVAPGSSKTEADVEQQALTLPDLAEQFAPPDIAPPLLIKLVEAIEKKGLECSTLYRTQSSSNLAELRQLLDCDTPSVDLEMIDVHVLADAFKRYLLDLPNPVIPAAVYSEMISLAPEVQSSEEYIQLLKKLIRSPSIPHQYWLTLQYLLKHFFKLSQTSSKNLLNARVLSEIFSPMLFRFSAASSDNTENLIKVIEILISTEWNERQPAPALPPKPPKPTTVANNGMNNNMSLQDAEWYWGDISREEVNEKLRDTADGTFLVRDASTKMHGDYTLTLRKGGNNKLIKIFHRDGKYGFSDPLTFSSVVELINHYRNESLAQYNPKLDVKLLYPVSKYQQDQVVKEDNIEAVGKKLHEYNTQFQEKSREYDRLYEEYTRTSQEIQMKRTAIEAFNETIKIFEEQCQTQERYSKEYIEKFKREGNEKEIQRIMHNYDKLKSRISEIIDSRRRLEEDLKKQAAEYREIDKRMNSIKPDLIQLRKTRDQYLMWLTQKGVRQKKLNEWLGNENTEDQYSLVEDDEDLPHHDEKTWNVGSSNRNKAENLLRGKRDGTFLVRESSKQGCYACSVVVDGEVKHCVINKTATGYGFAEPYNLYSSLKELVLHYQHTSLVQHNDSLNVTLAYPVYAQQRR
Chain of PI3Kβ (p110β) (P42338 whole entry): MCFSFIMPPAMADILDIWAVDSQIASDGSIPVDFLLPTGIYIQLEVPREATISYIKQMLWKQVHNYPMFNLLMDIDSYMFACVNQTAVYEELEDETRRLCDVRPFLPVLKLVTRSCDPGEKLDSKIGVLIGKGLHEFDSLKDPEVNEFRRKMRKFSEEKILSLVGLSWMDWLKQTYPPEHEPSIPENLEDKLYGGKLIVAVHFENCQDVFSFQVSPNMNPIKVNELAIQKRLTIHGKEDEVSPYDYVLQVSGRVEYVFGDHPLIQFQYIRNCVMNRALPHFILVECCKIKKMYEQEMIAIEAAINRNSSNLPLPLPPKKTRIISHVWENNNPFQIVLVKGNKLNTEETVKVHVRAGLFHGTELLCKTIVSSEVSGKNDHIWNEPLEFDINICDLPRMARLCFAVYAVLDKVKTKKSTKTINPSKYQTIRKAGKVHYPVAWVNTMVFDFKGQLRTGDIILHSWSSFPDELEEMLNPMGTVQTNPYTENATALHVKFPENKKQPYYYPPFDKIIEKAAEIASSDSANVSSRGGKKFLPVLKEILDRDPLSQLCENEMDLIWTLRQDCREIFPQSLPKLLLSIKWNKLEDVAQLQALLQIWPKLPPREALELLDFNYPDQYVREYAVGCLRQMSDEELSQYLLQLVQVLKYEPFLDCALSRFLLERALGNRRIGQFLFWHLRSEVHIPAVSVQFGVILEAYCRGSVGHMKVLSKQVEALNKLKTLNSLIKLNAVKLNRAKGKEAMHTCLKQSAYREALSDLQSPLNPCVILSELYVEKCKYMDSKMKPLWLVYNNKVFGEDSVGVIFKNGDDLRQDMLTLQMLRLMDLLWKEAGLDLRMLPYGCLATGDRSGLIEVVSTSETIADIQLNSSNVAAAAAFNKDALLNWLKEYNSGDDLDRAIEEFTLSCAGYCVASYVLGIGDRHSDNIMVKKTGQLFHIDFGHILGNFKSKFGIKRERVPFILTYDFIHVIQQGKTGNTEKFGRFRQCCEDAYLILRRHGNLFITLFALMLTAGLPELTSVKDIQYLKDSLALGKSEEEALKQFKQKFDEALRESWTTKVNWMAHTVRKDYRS
T2 sequence (P42338 whole entry): as above
T2 sequence (P27986 whole entry partner): as the sequence (P27986 whole entry partner) above

physical and chemical stability (purity and crystal form) ([1]; 40° C./75% RH and 60° C., 7 days): no change in purity and crystal form
Purity (peak area %) Average - 40° C./75% RH - 7 d ([1]; solid, 40° C./75% RH, 7 d, average, listed as Sample 5): 99.69 peak area %
Purity (peak area %) 40° C./75% RH - 7 d ([1]; solid, 40° C./75% RH, 7 d, single determinations, listed as Sample 5): 99.68 peak area % and 99.69 peak area %
Purity (peak area %) Average - 60° C. - 7 d ([1]; solid, 60° C., 7 d, average, listed as Sample 5): 99.65 peak area %
Purity (peak area %) 60° C. - 7 d ([1]; solid, 60° C., 7 d, single determinations, listed as Sample 5): 99.56 peak area % and 99.74 peak area %
Purity (peak area %) Average - 0 d ([1]; solid, day 0, average, listed as Sample 5): 99.48 peak area %
Purity (peak area %) 0 d ([1]; solid, day 0, single determinations, listed as Sample 5): 99.46 peak area % and 99.49 peak area %
Solubility ([2]; methanol, read-out: solubility in methanol): > 24 mg/mL
Solubility ([2]; tetrahydrofuran, read-out: solubility in tetrahydrofuran): > 11.6 mg/mL
pIC50 (PI3Kβ (p110β)): 7.36
pIC50 (PI3Kδ): 9.02
pIC50 (PI3Kβ): 6.90
pIC50 (DoHH-2): > 7.00
pIC50 (WSU-DLCL-2): > 7.00
SMILES: C[C@H](Nc1nc(N)nc(N)c1C#N)c1cc2ccc(F)cc2nc1-c1ccccn1 [p-toluenesulfonate of Compound A]
effect on tumor volume growth [3]: significant inhibitory effect
